From ChEMBL document CHEMBL2157998, “Synthesis and biological evaluation of new phenothiazine derivatives bearing a pyrazole unit as protein farnesyltransferase inhibitors” (Bioorg Med Chem Lett, 2012)
Active and inactive are the calls of the source. The rule behind the calls is not given here.

Key:
[1] = target: T1, Protein farnesyltransferase (Homo sapiens, UniProt P49354+P49356); assay: Inhibition of recombinant human FTase using dansyl-GCVLS as substrate at 100 uM after 15 mins by fluorimetric analysis; assay type: protein-complex assay
LOX IMVI = assay: Growth inhibition of human LOXIMVI cells at 10 uM after 48 hrs by single dose SRB assay; assay type: functional
U-251 = assay: Growth inhibition of human U251 cells at 10 uM after 48 hrs by single dose SRB assay; assay type: functional
SN12C = assay: Growth inhibition of human SN12C cells at 10 uM after 48 hrs by single dose SRB assay; assay type: functional
SK-MEL-5 = assay: Growth inhibition of human SK-MEL-5 cells at 10 uM after 48 hrs by single dose SRB assay; assay type: functional
SF-295 = assay: Growth inhibition of human SF295 cells at 10 uM after 48 hrs by single dose SRB assay; assay type: functional; details: for inhibition of growth at 10 µM: SF-295, 48 h, read-out: GI
ACHN = assay: Growth inhibition of human ACHN cells at 10 uM after 48 hrs by single dose SRB assay; assay type: functional
RPMI-8226 = assay: Growth inhibition of human RPMI8226 cells at 10 uM after 48 hrs by single dose SRB assay; assay type: functional
OVCAR-3 = assay: Growth inhibition of human OVCAR3 cells at 10 uM after 48 hrs by single dose SRB assay; assay type: functional
CAKI-1 = assay: Growth inhibition of human Caki1 cells at 10 uM after 48 hrs by single dose SRB assay; assay type: functional
HCT166 = assay: (§1) Growth inhibition of human […] cells at 10 uM after 48 hrs by single dose SRB assay; assay type: functional
UO-31 = assay: Growth inhibition of human UO31 cells at 10 uM after 48 hrs by single dose SRB assay; assay type: functional; details: for inhibition of growth at 10 µM: UO-31, 48 h, read-out: GI
MDA-MB-231 = assay: Growth inhibition of human MDA-MB-231 cells at 10 uM after 48 hrs by single dose SRB assay; assay type: functional
HCT-15 = assay: Growth inhibition of human HCT15 cells at 10 uM after 48 hrs by single dose SRB assay; assay type: functional
NCI/ADR-RES = assay: Growth inhibition of human NCI/ADR-RES cells at 10 uM after 48 hrs by single dose SRB assay; assay type: functional
PC-3 = assay: Growth inhibition of human PC3 cells at 10 uM after 48 hrs by single dose SRB assay; assay type: functional; details: PC-3, 48 h, read-out: GI
OVCAR-8 = assay: Growth inhibition of human OVCAR8 cells at 10 uM after 48 hrs by single dose SRB assay; assay type: functional
MDA-MB-468 = assay: Growth inhibition of human MDA-MB-468 cells at 10 uM after 48 hrs by single dose SRB assay; assay type: functional; details: MDA-MB-468, 48 h, read-out: GI
HL-60(TB) = assay: Growth inhibition of human HL-60(TB) cells at 10 uM after 48 hrs by single dose SRB assay; assay type: functional; details: HL-60, 48 h, read-out: GI
HOP-92 = assay: Growth inhibition of human HOP92 cells at 10 uM after 48 hrs by single dose SRB assay; assay type: functional; details: for inhibition of growth at 10 µM: HOP-92, 48 h, read-out: GI
CCRF-CEM = assay: Growth inhibition of human CCRF-CEM cells at 10 uM after 48 hrs by single dose SRB assay; assay type: functional
SW-620 = assay: Growth inhibition of human SW620 cells at 10 uM after 48 hrs by single dose SRB assay; assay type: functional
HT-29 = assay: Growth inhibition of human HT-29 cells at 10 uM after 48 hrs by single dose SRB assay; assay type: functional
[2] = target: T1, Protein farnesyltransferase; assay: Inhibition of recombinant human FTase using dansyl-GCVLS as substrate after 15 mins by fluorimetric analysis; assay type: protein-complex assay
NCI-H226 = assay: Growth inhibition of human NCI-H226 cells at 10 uM after 48 hrs by single dose SRB assay; assay type: functional; details: for inhibition of growth at 10 µM: NCI-H226, 48 h, read-out: GI
UACC-62 = assay: Growth inhibition of human UACC62 cells at 10 uM after 48 hrs by single dose SRB assay; assay type: functional; details: for inhibition of growth at 10 µM: UACC-62, 48 h, read-out: GI
NCI-H522 = assay: Growth inhibition of human NCI-H522 cells at 10 uM after 48 hrs by single dose SRB assay; assay type: functional; details: for inhibition of growth at 10 µM: NCI-H522, 48 h, read-out: GI
SNB-19 = assay: Growth inhibition of human SNB19 cells at 10 uM after 48 hrs by single dose SRB assay; assay type: functional
EKVX = assay: Growth inhibition of human EKVX cells at 10 uM after 48 hrs by single dose SRB assay; assay type: functional; details: for inhibition of growth at 10 µM: read-out: GI
A498 = assay: Growth inhibition of human A498 cells at 10 uM after 48 hrs by single dose SRB assay; assay type: functional; details: A498, 48 h, read-out: GI
MOLT-4 = assay: Growth inhibition of human MOLT4 cells at 10 uM after 48 hrs by single dose SRB assay; assay type: functional
[3] = as §1; assay type: functional; details: read-out: GI

CCOC(=O)c1cc(-c2ccccc2)n(CC(=O)N2c3ccccc3Sc3ccccc32)n1
inhibition [1]: 0%

CCOC(=O)c1cc(-c2ccccc2)nn1CC(=O)N1c2ccccc2Sc2ccccc21
inhibition [1]: 0%

N#Cc1cnn(CC(=O)N2c3ccccc3Sc3ccccc32)c1N
growth inhibition (GI) (LOX IMVI): inactive | inhibition [1]: 94.9% | growth inhibition (GI) (U-251): inactive | growth inhibition (GI) (SN12C): inactive | growth inhibition (GI) (SK-MEL-5): inactive | inhibition of growth at 10 µM (SF-295): 13.1% | growth inhibition (GI) (ACHN): inactive | growth inhibition (GI) (RPMI-8226): inactive | growth inhibition (GI) (OVCAR-3): inactive | growth inhibition (GI) (CAKI-1): inactive | growth inhibition (GI) (HCT166): inactive | inhibition of growth at 10 µM (UO-31): 6.4% | growth inhibition (GI) (MDA-MB-231): inactive | growth inhibition (GI) (HCT-15): inactive | growth inhibition (GI) (NCI/ADR-RES): inactive | inhibition of growth at 10 µM (PC-3): 9.9% | inhibition of growth at 10 µM (OVCAR-8; OVCAR-8, 48 h, read-out: GI): 5.5% | inhibition of growth at 10 µM (MDA-MB-468): 11.7% | inhibition of growth at 10 µM (HL-60(TB)): 46.2% | inhibition of growth at 10 µM (HOP-92): 12.5% | growth inhibition (GI) (CCRF-CEM): inactive | growth inhibition (GI) (SW-620): inactive | growth inhibition (GI) (HT-29): inactive | IC50 [2]: 17.2 µM | growth inhibition (GI) (NCI-H226): inactive | growth inhibition (GI) (UACC-62): inactive | growth inhibition (GI) (NCI-H522): inactive | growth inhibition (GI) (SNB-19): inactive | growth inhibition (GI) (EKVX): inactive | inhibition of growth at 10 µM (A498): 14%

N#Cc1cnn(C(=O)CCN2c3ccccc3Sc3ccccc32)c1N
inhibition [1]: 4.7%

Cc1c2c(nn1CC(=O)N1c3ccccc3Sc3ccccc31)CCCC2=O
inhibition [1]: 46.6%

Cc1c2c(nn1C(=O)CCN1c3ccccc3Sc3ccccc31)CCCC2
growth inhibition (GI) (MOLT-4): inactive | growth inhibition (GI) (LOX IMVI): inactive | inhibition [1]: 0% | growth inhibition (GI) (U-251): inactive | growth inhibition (GI) (SN12C): inactive | growth inhibition (GI) (SK-MEL-5): inactive | growth inhibition (GI) (SF-295): inactive | growth inhibition (GI) (ACHN): inactive | growth inhibition (GI) (RPMI-8226): inactive | growth inhibition (GI) (OVCAR-3): inactive | growth inhibition (GI) (CAKI-1): inactive | inhibition of growth at 10 µM [3]: 12.4% | growth inhibition (GI) (UO-31): inactive | growth inhibition (GI) (MDA-MB-231): inactive | growth inhibition (GI) (HCT-15): inactive | inhibition of growth at 10 µM (NCI/ADR-RES; read-out: GI): 8.2% | inhibition of growth at 10 µM (PC-3): 13% | growth inhibition (GI) (OVCAR-8): inactive | inhibition of growth at 10 µM (MDA-MB-468): 11.2% | inhibition of growth at 10 µM (HL-60(TB)): 19.6% | inhibition of growth at 10 µM (HOP-92): 31.6% | inhibition of growth at 10 µM (CCRF-CEM; read-out: GI): 12.8% | growth inhibition (GI) (SW-620): inactive | growth inhibition (GI) (HT-29): inactive | inhibition of growth at 10 µM (NCI-H226): 12.8% | inhibition of growth at 10 µM (UACC-62): 7.1% | inhibition of growth at 10 µM (NCI-H522): 9.1% | growth inhibition (GI) (SNB-19): inactive | inhibition of growth at 10 µM (EKVX): 8.3%

Cc1c2c(nn1C(=O)CN1c3ccccc3Sc3ccccc31)CCCC2
inhibition [1]: 0%

CCOC(=O)c1cnn(CC(=O)N2c3ccccc3Sc3ccccc32)c1N
inhibition of growth at 10 µM (MOLT-4; MOLT-4, 48 h, read-out: GI): 7.6% | growth inhibition (GI) (LOX IMVI): inactive | inhibition [1]: 24.8% | growth inhibition (GI) (U-251): inactive | growth inhibition (GI) (SN12C): inactive | inhibition of growth at 10 µM (SK-MEL-5; SK-MEL-5, 48 h, read-out: GI): 6.9% | inhibition of growth at 10 µM (SF-295): 6.7% | growth inhibition (GI) (ACHN): inactive | growth inhibition (GI) (RPMI-8226): inactive | growth inhibition (GI) (OVCAR-3): inactive | inhibition of growth at 10 µM (CAKI-1; CAKI-1, 48 h, read-out: GI): 16% | growth inhibition (GI) (HCT166): inactive | inhibition of growth at 10 µM (UO-31): 13.3% | growth inhibition (GI) (MDA-MB-231): inactive | inhibition of growth at 10 µM (HCT-15; HCT-15, 48 h, read-out: GI): 25.4% | growth inhibition (GI) (NCI/ADR-RES): inactive | inhibition of growth at 10 µM (PC-3): 21.3% | growth inhibition (GI) (OVCAR-8): inactive | inhibition of growth at 10 µM (MDA-MB-468): 15.3% | inhibition of growth at 10 µM (HL-60(TB)): 83.2% | growth inhibition (GI) (HOP-92): inactive | growth inhibition (GI) (CCRF-CEM): inactive | growth inhibition (GI) (SW-620): inactive | inhibition of growth at 10 µM (HT-29; HT-29, 48 h, read-out: GI): 13.2% | inhibition of growth at 10 µM (NCI-H226): 8.1% | inhibition of growth at 10 µM (UACC-62): 6.3% | inhibition of growth at 10 µM (NCI-H522): 31.9% | growth inhibition (GI) (SNB-19): inactive | inhibition of growth at 10 µM (EKVX): 5.3% | inhibition of growth at 10 µM (A498): 11.8%

Cc1cc(C)n(CC(=O)N2c3ccccc3Sc3ccccc32)n1
inhibition [1]: 22.4%
